From PubChem BioAssay AID1259407 (Chemical Carcinogenesis Research Information System (CCRIS), 2018) come the findings set out here.

This data set has as its system CCRIS mutagenicity, Ames/micronucleus/aberration tests. In words: CCRIS mutagenicity studies.
Where [1] appears, read: Test System: AMES SALMONELLA TYPHIMURIUM, Strain/Indicator: TA97, Metabolic Activation: HAMSTER, LIVER, S-9, AROCLOR 1254 (10%), Method: PREINCUBATION
Where [2] appears, read: Test System: AMES SALMONELLA TYPHIMURIUM, Strain/Indicator: TA97, Metabolic Activation: NONE, Method: PREINCUBATION
The mark [3] stands for this setting: Test System: AMES SALMONELLA TYPHIMURIUM, Strain/Indicator: TA98, Metabolic Activation: HAMSTER, LIVER, S-9, AROCLOR 1254 (10%), Method: PREINCUBATION
Setting [4] is: Test System: AMES SALMONELLA TYPHIMURIUM, Strain/Indicator: TA98, Metabolic Activation: NONE, Method: PREINCUBATION
[5] abbreviates: Test System: AMES SALMONELLA TYPHIMURIUM, Strain/Indicator: TA100, Metabolic Activation: HAMSTER, LIVER, S-9, AROCLOR 1254 (10%), Method: PREINCUBATION
The mark [6] stands for this setting: Test System: AMES SALMONELLA TYPHIMURIUM, Strain/Indicator: TA100, Metabolic Activation: NONE, Method: PREINCUBATION
[7] abbreviates: Test System: AMES SALMONELLA TYPHIMURIUM, Strain/Indicator: TA1535, Metabolic Activation: HAMSTER, LIVER, S-9, AROCLOR 1254 (10%), Method: PREINCUBATION
The mark [8] stands for this setting: Test System: AMES SALMONELLA TYPHIMURIUM, Strain/Indicator: TA1535, Metabolic Activation: NONE, Method: PREINCUBATION

Molecules are shown by their SMILES. The source made the active and inactive calls. No rule for the calls is given here.

For `CCNc1cc(O)ccc1C`, the mutagenic call runs as follows: under setting [1], “inactive; negative”; under setting [2], “inactive; negative”; (Test System: AMES SALMONELLA TYPHIMURIUM, Strain/Indicator: TA97, Metabolic Activation: RAT, LIVER, S-9, AROCLOR 1254 (10%), Method: PREINCUBATION) “inactive; negative”; under setting [3], “active; positive”; under setting [4], “inactive; negative”; (Test System: AMES SALMONELLA TYPHIMURIUM, Strain/Indicator: TA98, Metabolic Activation: RAT, LIVER, S-9, AROCLOR 1254 (10%), Method: PREINCUBATION) “active; positive”. In addition, the mutagenic call under setting [5] is “active; positive”; the mutagenic call under setting [6] is “inactive; negative”; the mutagenic call (Test System: AMES SALMONELLA TYPHIMURIUM, Strain/Indicator: TA100, Metabolic Activation: RAT, LIVER, S-9, AROCLOR 1254 (10%), Method: PREINCUBATION) is “inactive; negative”; the mutagenic call under setting [7] is “inactive; negative”; the mutagenic call under setting [8] is “inactive; negative”; the mutagenic call (Test System: AMES SALMONELLA TYPHIMURIUM, Strain/Indicator: TA1535, Metabolic Activation: RAT, LIVER, S-9, AROCLOR 1254 (10%), Method: PREINCUBATION) is “inactive; negative”.

As for `C[C@H](N)C(=O)c1ccccc1`, the mutagenic call (End Point: In vivo chromosomal aberrations, Test System: Blood from cardiac puncture, Species: Rat, Strain/Sex: Sprague-Dawley/Male, Route: Oral) was “active; positive (high dose significantly different from control and low dose)”.

For the molecule `CC(C)(C)OOC(C)(C)C`, the mutagenic call was “inactive; negative” under setting [1]; “inactive; negative” (Test System: AMES SALMONELLA TYPHIMURIUM, Strain/Indicator: TA97, Metabolic Activation: HAMSTER, LIVER, S-9, AROCLOR 1254 (30%), Method: PREINCUBATION); “inactive; negative” under setting [2]; “inactive; negative” (Test System: AMES SALMONELLA TYPHIMURIUM, Strain/Indicator: TA97, Metabolic Activation: RAT, LIVER, S-9, AROCLOR 1254 (10 OR 30%), Method: PREINCUBATION); “inactive; negative” under setting [3]; “inactive; negative” (Test System: AMES SALMONELLA TYPHIMURIUM, Strain/Indicator: TA98, Metabolic Activation: HAMSTER, LIVER, S-9, AROCLOR 1254 (30%), Method: PREINCUBATION). The mutagenic call runs as follows: under setting [4], “inactive; negative”; (Test System: AMES SALMONELLA TYPHIMURIUM, Strain/Indicator: TA98, Metabolic Activation: RAT, LIVER, S-9, AROCLOR 1254 (10 OR 30%), Method: PREINCUBATION) “inactive; negative”; under setting [5], “inactive; negative”; (Test System: AMES SALMONELLA TYPHIMURIUM, Strain/Indicator: TA100, Metabolic Activation: HAMSTER, LIVER, S-9, AROCLOR 1254 (30%), Method: PREINCUBATION) “inactive; negative”; under setting [6], “inactive; negative”; (Test System: AMES SALMONELLA TYPHIMURIUM, Strain/Indicator: TA100, Metabolic Activation: RAT, LIVER, S-9, AROCLOR 1254 (10 OR 30%), Method: PREINCUBATION) “inactive; negative”. The mutagenic call is, setting by setting: under setting [7], “inactive; negative”; (Test System: AMES SALMONELLA TYPHIMURIUM, Strain/Indicator: TA1535, Metabolic Activation: HAMSTER, LIVER, S-9, AROCLOR 1254 (30%), Method: PREINCUBATION) “inactive; negative”; under setting [8], “inactive; negative”; (Test System: AMES SALMONELLA TYPHIMURIUM, Strain/Indicator: TA1535, Metabolic Activation: RAT, LIVER, S-9, AROCLOR 1254 (10 OR 30%), Method: PREINCUBATION) “inactive; negative”.

Regarding `CS(=O)(=O)Nc1ccc([N+](=O)[O-])cc1Oc1ccccc1`, the mutagenic call (End Point: IN VIVO CHROMOSOMAL ABERRATIONS, Test System: BONE MARROW CELLS, Species: MOUSE, Strain/Sex: SWISS/MALE, FEMALE, Route: GAVAGE (TEST MATERIAL SOLVENT: WATER)) was “active; positive (structural changes)”.

For the molecule `COc1cc(O)c2c(c1)C(=O)c1cc(C)cc(O)c1C2=O`, the mutagenic call reads like this: (Test System: AMES SALMONELLA TYPHIMURIUM, Strain/Indicator: TA98, Metabolic Activation: NONE, Method: STANDARD PLATE) “inactive; negative”; (Test System: AMES SALMONELLA TYPHIMURIUM, Strain/Indicator: TA98, Metabolic Activation: RAT, LIVER, S-9, AROCLOR 1254, Method: STANDARD PLATE) “inactive; negative”; (Test System: AMES SALMONELLA TYPHIMURIUM, Strain/Indicator: TA100, Metabolic Activation: NONE, Method: STANDARD PLATE) “inactive; negative”; (Test System: AMES SALMONELLA TYPHIMURIUM, Strain/Indicator: TA100, Metabolic Activation: RAT, LIVER, S-9, AROCLOR 1254, Method: STANDARD PLATE) “inactive; negative”; (Test System: AMES SALMONELLA TYPHIMURIUM, Strain/Indicator: TA102, Metabolic Activation: RAT, LIVER, S-9, AROCLOR 1254, Method: STANDARD PLATE) “inactive; negative”; (Test System: AMES SALMONELLA TYPHIMURIUM, Strain/Indicator: TA1537, Metabolic Activation: NONE, Method: STANDARD PLATE) “inactive; negative”. Further, the mutagenic call is, setting by setting: (Test System: AMES SALMONELLA TYPHIMURIUM, Strain/Indicator: TA1537, Metabolic Activation: RAT, LIVER, S-9, AROCLOR 1254, Method: STANDARD PLATE) “active; positive”; (Test System: AMES SALMONELLA TYPHIMURIUM, Strain/Indicator: TA1537, Metabolic Activation: S-9, Method: STANDARD PLATE) “active; positive”.
